Holding throughout (format): cell-based
In one data set the target is T1, hFFA2 (Homo sapiens, UniProt O15552).
T1 construct: expressed in transfected cells; host or cells: Flp-In T-Rex 293 cells, doxycycline-induced
T1 sequence (O15552 1-330): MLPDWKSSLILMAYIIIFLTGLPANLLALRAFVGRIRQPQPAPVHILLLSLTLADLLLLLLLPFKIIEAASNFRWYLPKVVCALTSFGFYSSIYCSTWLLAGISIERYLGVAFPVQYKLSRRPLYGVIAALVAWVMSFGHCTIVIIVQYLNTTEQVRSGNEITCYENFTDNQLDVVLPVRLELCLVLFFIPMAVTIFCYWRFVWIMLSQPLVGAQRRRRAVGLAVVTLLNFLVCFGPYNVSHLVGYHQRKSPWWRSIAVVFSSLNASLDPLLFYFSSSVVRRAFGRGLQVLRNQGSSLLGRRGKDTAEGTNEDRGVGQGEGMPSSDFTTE
Briefly: cAMP assay, antagonist mode, Flp-In T-Rex 293 cells expressing hFFA2-eYFP. As to conditions: for cAMP pIC50: hFFA2, antagonist mode, propionate at EC80, mean ± SEM, three or more experiments; for LLEcAMP: pIC50, cAMP – ClogP; for LLEcAMP-logD: pIC50, cAMP – logD7.4. The procedure:
The activity of the compounds on FFA2 was evaluated in two different functional antagonist assays, both using propionate at EC80 as the agonist. The GTPγS assay reflects receptor activation by directly assessing G protein recruitment, whereas the cAMP assay, performed in whole cells, reflects a physiologically relevant downstream second messenger.
(§1) The hFFA2-eYFP and hFFA3-eYFP Flp-In T-Rex 293 cell lines were maintained in Dulbecco’s modified Eagle mMedium (DMEM, ThermoFisher #11965092) supplemented with 10% (v/v) fetal bovine serum, 100 U/mL penicillin, 100 μg/mL streptomycin, 5 μg/mL blasticidin S, and 200 μg/mL hygromycin B and incubated at 37 °C and 5% CO2 in a humidified incubator. Cells were passaged at 70–80% confluency.
To determine the compound’s ability to activate or inhibit the Gi-coupled FFA2 or FFA3, intracellular cAMP concentrations were determined using Flp-In T-Rex293 cells induced to express hFFA2-eYFP or hFFA3-eYFP. Experiments were carried out using a homogeneous time-resolved FRET-based detection kit (CisBio, PerkinElmer #62AM9PEC) according to the manufacturer’s protocol. The day before the assay, 10,000 cells/well were plated in DMEM supplemented with penicillin/streptomycin (100 units/mL and […], respectively), 5 μg/mL blasticidin S, and 200 μg/mL hygromycin B in 96-well cell culture microplates (Greiner Bio-One) and induced to express hFFA2-eYFP or hFFA3-YFP with 100 ng/mL doxycycline.
In antagonist mode, the cells were pre-incubated for 20 min with antagonist test compounds in HBSS together with 50 μM IBMX at rt. Then, the cells were further incubated for 25 min at rt in HBSS with the agonist compound, sodium propionate at EC80 (51.4 μM for FFA2, 13.2 μM for FFA3), and 3 μM forskolin. Reactions were stopped, and the output was measured with an Envision plate reader using a time-resolved fluorescence protocol, measuring the light emission at 620 and 665 nm. All analyses were performed in triplicate and analyzed using GraphPad Prism (version 9).
A general note: Changes in cAMP serve as a functional read-out for many G protein-coupled receptors.

For the next data set, the system named is human neutrophils. Briefly: Human neutrophil respiratory burst (luminol-amplified chemiluminescence). The settings on record: for IC50: Neutrophil, read-out: pIC50 on C3-induced respiratory burst (converted). The procedure:
Human peripheral blood neutrophils were isolated from healthy volunteer buffy coats. Initially, the majority of red blood cells were sedimented using 2% w/v dextran sulfate in a 0.9% NaCl solution for 15 min. Next, the upper phase was centrifuged for 10 min at 200g and the supernatant was discarded. The pellet was resuspended in 0.9% NaCl solution, and neutrophils were separated from here using Lymphoprep (STEMCELL Technologies #07851) and density-gradient centrifugation (400g for 30 min). Then, the remaining red blood cells were subjected to hypotonic lysis by addition of 10 mL of sterile water followed by addition of 10 mL of 1.8% NaCl solution. Cell count and viability were determined using trypan blue and a Countess cell counter. Isolated neutrophils were characterized by May–Grunwald–Giemsa staining and immediately used for migration assays or assessment of respiratory burst.
Human neutrophil respiratory burst was assessed via luminol-amplified chemiluminescence. Freshly isolated human neutrophils were seeded in a concentration of 100,000 cells/well in a flat bottom, white 96-well plate (PerkinElmer cat #6005680). Cells were pre-incubated for 30 min with test compounds or vehicles (DMSO) in HBSS in a humidified atmosphere at 37 °C and 5% CO2. Next, luminol (Merck cat #521-31-3) was added to a final concentration of 10 μM. Lastly, the vehicle or the FFA2 agonist, sodium propionate, was added to a final concentration of 1 mM. Immediately thereafter, chemiluminescence was evaluated with an LUMIstar Omega microplate reader (PerkinElmer) where light emission was recorded for 1 s/well every 60 s for 1 h at 37 °C. Experiments were performed in triplicate and analyzed using GraphPad Prism (version 9). Fold response was calculated as the relative luminescence of samples compared to the vehicle control.

A further data set has as its target T2, hFFA3 (Homo sapiens, UniProt O14843).
T2 construct: expressed in transfected cells; host or cells: Flp-In T-Rex 293 cells, doxycycline-induced
T2 sequence (O14843 1-346): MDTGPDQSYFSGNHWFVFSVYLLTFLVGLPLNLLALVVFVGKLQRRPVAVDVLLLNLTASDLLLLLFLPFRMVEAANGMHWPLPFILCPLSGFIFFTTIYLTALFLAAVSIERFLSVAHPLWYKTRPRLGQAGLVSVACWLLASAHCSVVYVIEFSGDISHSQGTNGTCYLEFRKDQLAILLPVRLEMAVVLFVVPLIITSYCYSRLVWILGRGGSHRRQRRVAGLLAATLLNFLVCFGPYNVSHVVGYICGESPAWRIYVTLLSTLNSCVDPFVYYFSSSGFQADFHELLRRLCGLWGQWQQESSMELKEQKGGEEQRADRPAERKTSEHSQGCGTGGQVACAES
Briefly: cAMP assay, Flp-In T-Rex 293 cells expressing hFFA3-eYFP. The settings on record: at 10 μM. The method, then:
as §1
To determine the compound’s ability to activate or inhibit the Gi-coupled FFA2 or FFA3, intracellular cAMP concentrations were determined using Flp-In T-Rex293 cells induced to express hFFA2-eYFP or hFFA3-eYFP. […]
In agonist mode, the next day, the agonist was added in Hank’s balanced salt solution supplemented with 20 mM HEPES, 1 mM MgCl2, and 1 mM CaCl2 at pH 7.4 (HBSS) together with 50 μM 3-isobutyl-1-methylxanthine (IBMX) and 3 μM forskolin. After 25 min pf incubation at rt, agonist-induced intracellular cAMP production was assessed by stopping the reactions and measuring the output with an Envision plate reader using a time-resolved fluorescence protocol, measuring the light emission at 620 and 665 nm.
In antagonist mode, the cells were pre-incubated for 20 min with antagonist test compounds in HBSS together with 50 μM IBMX at rt. […] All analyses were performed in triplicate and analyzed using GraphPad Prism (version 9).

“And” between values parts separate entries of the source, which are not always exact repeats. Identical values can stand only once. “Also recorded” adds a separate entry of the source. Like-named read-outs stand apart in the source and are kept apart here.

From article PMC10547238, “Discovery of Potent Tetrazole Free Fatty Acid Receptor 2 Antagonists” (Journal of Medicinal Chemistry, 2023) come the findings set out here.

On to `O=C(O)C[C@H](Cc1ccc(C(F)(F)F)cc1)NC(=O)Cc1cccc(Cl)c1` [Compound 3, reference compound], for which, on hFFA2, the “cAMP pIC50” value stood at 6.96 ± 0.07, the LLEcAMP came out at 2.75 and the LLEcAMP-logD came to 5.57. In the data set with human neutrophils (propionate (C3) 1 mM), the IC50 was 46.8 nM.
Regarding `O=C(Cc1cncc(Br)c1)N[C@@H](Cc1ccc(C(F)(F)F)cc1)Cc1nnn[nH]1` [Compound 16w, (S)-3-(2-((1-(1H-Tetrazol-5-yl)-3-(4-(trifluoromethyl)phenyl)propan-2-yl)amino)-2-oxoethyl)-5-bromopyridin-1-ium 2,2,2-trifluoroacetate], at hFFA2, the “cAMP pIC50” value is 7.83 ± 0.14; the LLEcAMP is on record as 5.90; the LLEcAMP-logD was 7.1 and 7.12. On hFFA2 (supplementary CSV, read-out: hFFA2 cAMP (pIC50) (converted)), the IC50 is 10.2 nM. The increase in potency on hFFA2 (vs 16s, assay not specified) is reported as 9 fold. For the same molecule, on hFFA3, the “activity on FFA3” value was “devoid of activity”.
Regarding `COc1cccc(CC(=O)N[C@@H](Cc2ccc(C(F)(F)F)cc2)Cc2nnn[nH]2)c1` [Compound 16l, (S)-N-(1-(1H-Tetrazol-5-yl)-3-(4-(trifluoromethyl)phenyl)propan-2-yl)-2-(3-methoxyphenyl)acetamide], on hFFA2, the “cAMP pIC50” value is 8.35 ± 0.15; the LLEcAMP worked out at 5.87; the LLEcAMP-logD is 7.5 and 7.51. Moreover, at hFFA2 (inhibition of propionate at FFA2, read-out: IC50 in cAMP assay), the IC50 is 3 to 4 nM and 4 nM. In addition, in the data set with human neutrophils (propionate (C3) 1 mM), the IC50 was 5.75 nM and the “inhibition of propionate-induced respiratory burst” value is on record as “completely inhibit; also recorded: full inhibition; also recorded: complete inhibition”. Also, the “effect on respiratory burst induced by fMLP” value in the data set on human neutrophils (fMLP-induced) is “did not exhibit any effect”. The “activity on FFA3” value at hFFA3 is “devoid of activity”.
